Measured values from patent US10314307B2, “(S)-abscisic acid derivatives for improving plant stress tolerance” (Valent BioSciences Corporation, priority 2015, dated 2019).

How the values were obtained:
Type in all cases: in vivo
[1] = test system: corn plants, 111 day, central corn belt variety; experiment: Corn plant chilling (growth rate); conditions: for Growth Rate, Greenhouse 7-9 d post spray / Growth Rate, Greenhouse 0-2 d post spray / Growth Rate, Growth Chamber 10° C. 2-7 d post spray: Table 3 study; for Growth Rate, Greenhouse 7-9 d post spray: after chilling; for Growth Rate, Growth Chamber 10° C. 2-7 d post spray: during chilling at 10° C.
Experimental: Corn seeds of a 111 day, central corn belt variety were planted in 2-quart pots filled with medium. After the corn grew for 10 days in the greenhouse at 24±3° C. (V2 to V3 growth stage), the plants received a foliar spray application of aqueous solutions of the test compounds containing 0.25% non-ionic surfactant with a volume equivalent to 30 gallons/acre. After spraying, plants were moved back to the greenhouse for 2 days, then moved to a growth chamber kept at 10° C. with a 16:8 light:dark cycle (cold treatment). After 5 days in the cold, plants were returned to the greenhouse for 2 days before being harvested destructively. Results of the studies comparing the growth rate of plants treated with S-ABA with 3′-methyl-(S)-ABA during the experiment are shown in Table 3. In additional studies, the effect of S-ABA and 3′-propargyl-(S)-ABA on corn growth rate in chilling studies was compared.

[2] = test system: corn plants, commercial 111 day, central corn belt variety; experiment: Corn stomatal conductance; conditions: for Average Stomatal Conductance (% of Control), 6 DAS: 6 days after spraying; for Average Stomatal Conductance (% of Control), 16 DAS: 16 days after spraying
Experimental: (§1) In this greenhouse experiment, foliar spray treatments containing 3′-methyl-(S)-abscisic acid, 3′-propargyl-(S)-abscisic acid or (S)-abscisic acid were applied to corn plants to evaluate their effect on gas exchange, as measured through stomatal conductance. Corn plants of a commercial, 111 day, central corn belt variety were grown in the greenhouse under optimal conditions for five weeks and were size-matched into ten groups of five plants. Using an aerosol sprayer, each group was sprayed to drip (25 milliliters per plant) with solutions containing a non-ionic surfactant (0.125%, v/v) and water (control), 2.5 mg, 7.5 mg or 25 mg/plant 3′-methyl-(S)-abscisic acid, or 2.5 mg, 7.5 mg or 25 mg/plant 3′-propargyl-(S)-abscisic acid, or 7.5 mg, 25 mg or 75 mg/plant (5)-ABA, respectively. After spraying, plants were returned to the greenhouse for the duration of the experiment. Stomatal conductance was measured using an AP4 porometer (Delta T Devices, Cambridge, UK) and the conductance for each plant was recorded at approximately the same time of day (˜10 AM) prior to treatment application as well as 1, 2, 5, 6, 9 and 16 days post-spraying.

[3] = test system: soybean plants; experiment: Soybean drought tolerance (stomatal conductance)
Experimental: In this study, soybean plants were grown for 10 days under ambient lab temperature conditions and illumination of 150 umol m^2 s^−1 and a 16:8 photoperiod. At spraying, the primary leaves were fully expanded and the first trifoliate leaves were partially expanded. The plants were sprayed to dampness with solutions of water, S-ABA, 3′-methyl-(S)-abscisic acid, or 3′-propargyl-(S)-abscisic acid containing 0.025% (v/v) non-ionic surfactant. At times following spraying, the conductance of the primary leaves was measured using an AP4 porometer (Delta T Devices, Cambridge, UK) to evaluate the effect on stomatal conductance. A decrease in stomatal aperture, reflected in the conductance measures, is an immediate and direct effect of applied S-ABA. To simplify the data, the controls were always set to 100%. In Table 9, the effect of spray applications on the stomatal conductance was measured.

[4] = test system: corn plants, commercial 111 day, central corn belt variety; experiment: Corn plant leaf rolling assay and shoot fresh weight under drought; conditions: for Shoot Fresh Weight, 15 DAS: 12 days drought then 3 days watering; for Average # of Rolled Leaves/Plant, 5 DAS / Average # of Rolled Leaves/Plant, 6 DAS / Average # of Rolled Leaves/Plant, 8 DAS: water withheld; for Average # of Rolled Leaves/Plant, 5 DAS: 5 days after spraying; for Average # of Rolled Leaves/Plant, 6 DAS: 6 days after spraying; for Average # of Rolled Leaves/Plant, 8 DAS: 8 days after spraying
Experimental: as §1, with “post-spraying. This study was conducted as described above with the following the exceptions. After spraying, plants were put back in the greenhouse and water was withheld for twelve days, simulating drought stress. The plants were then watered to saturation for three consecutive days before the plant shoots were cut at the soil surface and subsequently weighed in grams (fresh weight). Leaf-rolling data and fresh weight data were recorded for each plant following treatment application at the times specified below in Table 6.” for “post-spraying.”

[5] = foliar spray 30 mg/l (3.4 g/acre)
[6] = foliar spray 100 mg/l (11.4 g/acre)
[7] = foliar spray 300 mg/l (34.1 g/acre)
[8] = foliar spray 1000 mg/l (113.7 g/acre)
[9] = foliar spray 100 ppm or 2.5 mg/plant
[10] = foliar spray 300 ppm or 7.5 mg/plant
[11] = foliar spray 1000 ppm or 25 mg/plant

CC1=C(C)[C@](O)(/C=C/C(C)=C\C(=O)O)C(C)(C)CC1=O [3′-methyl-(S)-ABA, (2Z,4E)-5-((S)-1-hydroxy-2,3,6,6-tetramethyl-4-oxocyclohex-2-en-1-yl)-3-methylpenta-2,4-dienoic acid]
Maintenance of growth under cold (10° C.) conditions ([1]; S-ABA even at 1000 mg/l (113.7 g/acre)): maintained growth | Growth Rate, Greenhouse 7-9 d post spray [1, 5]: 2.650 cm/day | Growth Rate, Greenhouse 0-2 d post spray ([1]; foliar spray 30 mg/l (3.4 g/acre), before chilling): 3.725 cm/day | Growth Rate, Growth Chamber 10° C. 2-7 d post spray [1, 5]: 1.092 cm/day | Growth Rate, Greenhouse 7-9 d post spray [1, 6]: 2.795 cm/day | Growth Rate, Greenhouse 0-2 d post spray ([1]; foliar spray 100 mg/l (11.4 g/acre), before chilling): 4.290 cm/day | Growth Rate, Growth Chamber 10° C. 2-7 d post spray [1, 6]: 1.084 cm/day | Growth Rate, Greenhouse 7-9 d post spray [1, 7]: 3.565 cm/day | Growth Rate, Greenhouse 0-2 d post spray ([1]; foliar spray 300 mg/l (34.1 g/acre), before chilling): 3.645 cm/day | Growth Rate, Growth Chamber 10° C. 2-7 d post spray [1, 7]: 0.990 cm/day | Growth Rate, Greenhouse 7-9 d post spray [1, 8]: 2.945 cm/day | Growth Rate, Greenhouse 0-2 d post spray ([1]; foliar spray 1000 mg/l (113.7 g/acre), before chilling): 3.615 cm/day | Growth Rate, Growth Chamber 10° C. 2-7 d post spray [1, 8]: 1.160 cm/day | Plant growth initially following spraying ([1]; before chilling): initially suppressed | Leaf area ([1]; in one of two studies, not repeatable across studies, 3′-methyl-(S)-abscisic acid at 30, 100 and 300 mg/liter): increased | Average Stomatal Conductance (% of Control), 6 DAS [2, 9]: 93.3 % of Control | Average Stomatal Conductance (% of Control), 16 DAS [2, 9]: 98.3 % of Control | Average Stomatal Conductance (% of Control), 6 DAS [2, 10]: 70.6 % of Control | Average Stomatal Conductance (% of Control), 16 DAS [2, 10]: 79.4 % of Control | Average Stomatal Conductance (% of Control), 6 DAS [2, 11]: 69.6 % of Control | Average Stomatal Conductance (% of Control), 16 DAS [2, 11]: 74.5 % of Control | Relative potency resulting in a 25% reduction in transpiration, times that seen with S-ABA ([2]; regression of the data in Table 5): 1.97 times | Reduction in stomatal conductance at 1 day post spraying ([3]; 300 mg/l foliar spray): 89% | Percent Conductance (stomatal conductance, control = 100%), Day 1 ([3]; foliar spray 300 mg/l, 0.3 mg/plant, Day 1): 11% | Percent Conductance (stomatal conductance, control = 100%), Day 2 ([3]; foliar spray 300 mg/l, 0.3 mg/plant, Day 2): 18% | Percent Conductance (stomatal conductance, control = 100%), Day 5 ([3]; foliar spray 300 mg/l, 0.3 mg/plant, Day 5): 36% | Percent Conductance (stomatal conductance, control = 100%), Day 6 ([3]; foliar spray 300 mg/l, 0.3 mg/plant, Day 6): 68% | Percent Conductance (stomatal conductance, control = 100%), Day 7 ([3]; foliar spray 300 mg/l, 0.3 mg/plant, Day 7): 79% | Shoot Fresh Weight, 15 DAS ([4]; 100 ppm or 2.5 mg/plant): 256.0 grams | Average # of Rolled Leaves/Plant, 5 DAS ([4]; 100 ppm or 2.5 mg/plant): 1.6 | Average # of Rolled Leaves/Plant, 6 DAS ([4]; 100 ppm or 2.5 mg/plant): 4.6 | Average # of Rolled Leaves/Plant, 8 DAS ([4]; 100 ppm or 2.5 mg/plant): 9.0 | Shoot Fresh Weight, 15 DAS ([4]; 300 ppm or 7.5 mg/plant): 276.6 grams | Average # of Rolled Leaves/Plant, 5 DAS ([4]; 300 ppm or 7.5 mg/plant): 2.0 | Average # of Rolled Leaves/Plant, 6 DAS ([4]; 300 ppm or 7.5 mg/plant): 3.6 | Average # of Rolled Leaves/Plant, 8 DAS ([4]; 300 ppm or 7.5 mg/plant): 8.4 | Shoot Fresh Weight, 15 DAS ([4]; 1000 ppm or 25 mg/plant): 373.4 grams | Average # of Rolled Leaves/Plant, 6 DAS ([4]; 1000 ppm or 25 mg/plant): 2.2 | Average # of Rolled Leaves/Plant, 8 DAS ([4]; 1000 ppm or 25 mg/plant): 7.2
